Measured values as given in patent US20230348518A1 (priority 2020, published 2023).
Entries after “also recorded” stand apart in the source; their conditions may differ.

Legend:
[1] = test system: MCM assembly and activity; assay: MCM assembly and activity in cells; type: cell-based; details: Hacat cells and OS tumor cells (143b)
[2] = test system: Hacat non-tumor skin cells; assay: sensitivity of non-tumor Hacat cells; type: cell-based; details: FIGS. 17 and 19
[3] = target: HPV18 E1 helicase (helicase domain only) (Human papillomavirus type 18, UniProt P06789); assay: HPV18 E1 helicase inhibition; type: biochemical
HPV18 E1 helicase (helicase domain only), sequence (P06789 458-608 limits assumed): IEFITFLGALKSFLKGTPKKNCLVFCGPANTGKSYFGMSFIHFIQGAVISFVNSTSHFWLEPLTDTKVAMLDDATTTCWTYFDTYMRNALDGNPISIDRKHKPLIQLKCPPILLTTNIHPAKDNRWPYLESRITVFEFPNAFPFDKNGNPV

[4] = test system: T1, human CMG (hCMG); assay: human CMG biochemical assays (primary and secondary), format not specified; details: for inhibition of the human CMG in biochemical assays (primary and secondary): in vitro
T1 construct: made in house; host or cells: insect cells (Sf9), baculoviruses
From the text: (§1) We have focused on the enzymatic ATP hydrolysis steps used by the core MCM hexamers of the CMG helicase to identify ATP competitive inhibitors of […] and/or hydrolysis within one or more of the MCM hexamer pairs. To do this, we established a means to express and purify the human CMG helicase in our lab, and then we verified the isolated CMG is active in DNA unwinding assays. We then set up a novel assay to quantitatively measure ATP hydrolysis (ADP production) by the human CMG. This assay used reagents that are sensitive enough to read small changes in ADP production from our functioning CMG helicase in an in vitro biochemical enzyme assay. This assay relies on reading fluorescent-polarization (FP) changes from an antibody that binds to an ADP-fluorophore molecule that is displaced when the CMG produces ADP on its own. The results are obtained using a Perkin-Elmer Envision II FP plate reader. This approach is referred to as our primary screening assay. Our secondary screening assay, which is lower through-put, uses a traditional radioactive-based DNA fork unwinding method of analysis to verify whether a given potential CMGi is truly capable of inhibiting CMG elongation along DNA and subsequent fork unwinding.

[5] = target: T2, Simian virus 40 (SV40) large-T-antigen (Tag) DNA helicase (Simian virus 40, UniProt P03070); assay: classic fork unwinding assay; type: biochemical; details: in vitro, FIG. 2 and titration FIG. 11
T2 construct: made in house
T2 sequence (P03070 whole entry): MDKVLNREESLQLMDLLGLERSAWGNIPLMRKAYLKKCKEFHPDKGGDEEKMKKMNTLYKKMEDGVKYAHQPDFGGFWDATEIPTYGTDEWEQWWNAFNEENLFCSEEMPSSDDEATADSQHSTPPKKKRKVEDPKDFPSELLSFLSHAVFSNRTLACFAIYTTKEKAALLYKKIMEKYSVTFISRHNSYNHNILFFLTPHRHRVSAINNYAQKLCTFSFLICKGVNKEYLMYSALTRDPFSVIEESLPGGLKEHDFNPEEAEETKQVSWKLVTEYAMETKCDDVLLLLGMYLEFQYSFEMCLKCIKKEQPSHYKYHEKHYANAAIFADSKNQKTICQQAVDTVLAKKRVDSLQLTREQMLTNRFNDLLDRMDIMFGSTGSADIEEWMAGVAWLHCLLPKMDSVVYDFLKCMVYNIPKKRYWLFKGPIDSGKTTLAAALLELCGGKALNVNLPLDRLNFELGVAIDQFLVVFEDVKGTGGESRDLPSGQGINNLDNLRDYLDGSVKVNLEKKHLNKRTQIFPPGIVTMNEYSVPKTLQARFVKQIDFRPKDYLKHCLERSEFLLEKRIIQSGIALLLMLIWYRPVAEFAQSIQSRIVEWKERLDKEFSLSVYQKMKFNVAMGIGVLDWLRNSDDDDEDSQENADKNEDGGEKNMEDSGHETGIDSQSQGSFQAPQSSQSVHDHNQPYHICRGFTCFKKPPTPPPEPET
From the text: (§2) For feasibility of this example, it is shown that sufficient quantities of enzymatically active hCMG can be purified using an established approach (FIGS. 9A-9D). This method of hCMG purification was previously devised by the Hurwitz lab and involves the co-expression of all 11 subunits of the hCMG using baculoviruses and insect cells, followed by a five-step chromatography-based enrichment scheme. The steps of the purification are outlined in FIG. 9A, with Westerns on isolated fractions used to assess the completeness of hCMG subunits and enzyme recovered after the final glycerol gradient step (FIG. 9B). […] Activity is measured using a classical fork-unwinding helicase assay that relies on radioactive forks being separated, and ssDNA being recognized and quantifiable in gels using PhosphorImager analyses (FIG. 9D). SV40-derived Tag helicase was also purified as a positive control, and our active hCMG is close in forkunwinding output to that of TAg. Each prep of hCMG thus obtained is giving us -5-10 fmol of hCMG per uL of glycerol gradient fraction, with fractions totaling 150-170 uL (3-4 fractions obtained with obvious hCMG; FIG. 9B). Only 1 uL hCMG is required to easily see activity using this method (FIG. 9D). […] Given that multiple fractions produce active hCMG, this provides ample quantities of hCMG to design, calibrate, and test a workflow for hCMG chemical screening. […]

[6] = test system: RPA loading onto DNA/chromatin in A549 NSCLC cells; assay: RPA32 western blot of total cell extracts and chromatin-bound fractions; type: cell-based; details: A549 NSCLC cells, 0.1, 10, or 25 μM, 48 hours
From the text: Cells were harvested and protein from each group isolated into total cell extracts (TCE) or chromatin-bound fractions. Standard SDS-PAGE followed by western blot was used to separate proteins and probe for RPA32 presence in TCE and bound chromatin. Actin serves as a loading control. […] There is also some toxicity of Coumermycin A1 (Compound B).

[7] = test system: DNA damage / Parp cleavage in tumor cells; assay: DNA damage and Parp cleavage in cells; type: cell-based; details: tumor cells versus Hacat
[8] = target: HPV16 E1 helicase (Human papillomavirus type 16, UniProt P03114); assay: HPV16 E1 helicase inhibition; type: biochemical; details: full-length
HPV16 E1 helicase (Human papillomavirus type 16, UniProt P03114), sequence (P03114 whole entry): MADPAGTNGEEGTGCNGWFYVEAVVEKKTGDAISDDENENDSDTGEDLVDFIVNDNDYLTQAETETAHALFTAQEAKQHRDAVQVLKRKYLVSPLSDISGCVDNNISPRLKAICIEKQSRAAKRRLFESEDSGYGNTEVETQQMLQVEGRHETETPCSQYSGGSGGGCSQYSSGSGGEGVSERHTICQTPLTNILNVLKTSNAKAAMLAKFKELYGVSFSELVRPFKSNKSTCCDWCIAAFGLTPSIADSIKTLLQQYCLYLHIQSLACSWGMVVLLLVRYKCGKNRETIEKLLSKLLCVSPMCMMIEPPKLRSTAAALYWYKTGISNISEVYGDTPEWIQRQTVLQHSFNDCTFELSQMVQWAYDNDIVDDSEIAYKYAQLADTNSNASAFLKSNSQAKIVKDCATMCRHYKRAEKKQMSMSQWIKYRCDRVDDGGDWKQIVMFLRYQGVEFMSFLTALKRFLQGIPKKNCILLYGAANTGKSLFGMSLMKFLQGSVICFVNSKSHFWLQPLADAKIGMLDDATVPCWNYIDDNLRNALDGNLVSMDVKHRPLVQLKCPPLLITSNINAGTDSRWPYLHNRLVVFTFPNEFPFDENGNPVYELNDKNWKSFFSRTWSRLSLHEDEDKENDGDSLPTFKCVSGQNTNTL

[9] = test system: HPV16 E1 helicase; assay: HPV16 E1 helicase inhibition; type: biochemical; details: for inhibition of E1 helicase from HPV16: FIG. 12, construct not stated
[10] = test system: OS tumor cells; assay: inhibition of osteosarcoma tumor cells; type: cell-based; details: FIGS. 14A-14F
[11] = test system: OS tumor; assay: OS tumor growth in mice; type: in vivo
[12] = test system: multiple tumor types; assay: sensitivity of multiple tumor types; type: cell-based; details: low doses, FIG. 17
[13] = test system: T3, human CMG helicase; assay: fluorescent-polarization (FP) assay measuring ADP production; type: biochemical; details: for CMG activity inhibited: 1 mM, fluorescence-polarization assay; for inhibition of CMG helicase in fluorescent-polarization assay: FIG. 3
T3 construct: made in house; host or cells: insect cells (Sf9), baculoviruses
From the text: as §1
The components for the assay used for ATP hydrolysis measurements of the hCMG are produced by BellBrook Labs, and the kit is called the ADP2 Transcreener™ FP Assay. […] As shown in FIGS. 10A-10B, the hCMG is incubated with ATP, buffer, and non-radioactive fork substrates for a determined length of time to allow hCMG activity to occur (or not, if an inhibitor is present). This produces ADP, which is recognized by the FP assay when free ADP competes an ADP-fluor off of a patented antibody that binds ADP with high affinity. […] But this polarity is reduced in a quantitative manner depending on the presence of free ADP (produced by the hCMG here), once the ADP-fluor is released from the antibody. Noteworthy, the fluor (Alexa 633) used here is in the far-red spectrum, which reduces problems during screening that can (likely) occur when chemicals themselves emit red or green wavelengths that interfere with plate reader steps (can give false positives). The system is very sensitive to even small changes in ADP production, being able to sense 0.5-2% changes quite easily (verified in our hands, using ADP-ATP standard curves). Low substrate conversion to ADP can be detected with a Z′-factor≥0.7 at 2.5% ATP conversion. The latter is achieved with a read time of less than 5 minutes. Signal stability is greater than 24 hr, and ADP-FP reagents are stable at RT for 8 hrs and tolerate 1% DMSO. Light output is also stable in the presence of up to 10% DMSO, DMF, ethanol, acetonitrile, or methanol solvents. ATP starting concentrations can be within the range of 0.1-1000 μM, and our hCMG enzyme requires 500 μM ATP for functioning near its published Km, which has been verified applies to the hCMG preparations (not shown).
Since hCMG is purified, feasibility testing of the FP assay was performed with the hCMG (FIGS. 10A-10B). Cubes, filters, and mirrors for dual-FP analysis were obtained using PE Envision II equipment, and such items were verified as functional. A window for change in millipolarizations (AmP window) is established with reagents alone, and the amount of patented antibody needed to achieve an optimal window is pre-determined in pilot titration assays using ATP at the required 500 μM level. […] Using formulas BellBrook Labs supplies for their reagents, it was also calculated that the assay was working with a Z′-factor of >0.6 (calculations not shown). Optimal ΔmP can be as high as 80% change (EC80). Achieving this will also increase our Z′-factor to 0.8-0.9.

[14] = test system: T3, human CMG helicase; assay: radioactive DNA fork unwinding helicase assay; type: biochemical; details: for inhibition of CMG activity in fork unwinding assay: 0.5 mM, 30 minutes at 37 degrees Celsius, compared to Novobiocin; for inhibition of human CMG helicase in fork unwinding assay: in vitro, FIG. 2
From the text: as §1
The human CMG helicase assay was performed with purified CMG before glycerol gradient centrifugation. Novobiocin (Compound A), Clorobiocin (Compound D), and Coumermycin A1 (Compound B) were incubated with 2 μL human CMG and 1 μL ^32P-labeled DNA forks for 30 minutes at 37 degrees Celsius. The reactions were stopped with 6× loading buffer, separated in 10% PAGE, and dried on filter paper followed by autoradiography.
as §2, with “TAg.” for “TAg. Each prep of hCMG thus obtained is giving us -5-10 fmol of hCMG per uL of glycerol gradient fraction, with fractions totaling 150-170 uL (3-4 fractions obtained with obvious hCMG; FIG. 9B). Only 1 uL hCMG is required to easily see activity using this method (FIG. 9D).”

[15] = target: HPV31 E1 helicase (full-length) (Human papillomavirus 31, UniProt P17382); assay: HPV31 E1 helicase inhibition; type: biochemical
HPV31 E1 helicase (full-length), sequence (P17382 whole entry): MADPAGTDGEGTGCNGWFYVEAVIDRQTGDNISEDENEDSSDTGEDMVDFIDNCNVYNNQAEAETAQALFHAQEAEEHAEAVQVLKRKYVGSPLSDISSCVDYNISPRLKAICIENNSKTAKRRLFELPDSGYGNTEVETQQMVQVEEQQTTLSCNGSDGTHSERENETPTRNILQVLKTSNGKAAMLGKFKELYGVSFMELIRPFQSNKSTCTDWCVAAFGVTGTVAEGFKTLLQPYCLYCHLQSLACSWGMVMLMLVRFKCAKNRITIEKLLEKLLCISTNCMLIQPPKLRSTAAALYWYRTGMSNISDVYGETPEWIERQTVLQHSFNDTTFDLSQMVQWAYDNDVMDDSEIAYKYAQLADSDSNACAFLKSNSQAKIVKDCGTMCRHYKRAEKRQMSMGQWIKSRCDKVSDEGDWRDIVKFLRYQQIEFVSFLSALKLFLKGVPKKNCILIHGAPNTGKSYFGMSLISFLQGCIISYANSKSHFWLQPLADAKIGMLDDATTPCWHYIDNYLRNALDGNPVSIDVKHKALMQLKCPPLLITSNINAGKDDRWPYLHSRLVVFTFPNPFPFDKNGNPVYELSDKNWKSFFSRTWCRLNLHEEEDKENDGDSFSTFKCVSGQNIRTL

[16] = test system: HeLa cells; details: supra-physiologic doses; cited from earlier work

## CO[C@@H]1[C@@H](OC(=O)c2ccc(C)[nH]2)[C@@H](O)[C@H](Oc2ccc3c(O)c(NC(=O)c4c[nH]c(C(=O)Nc5c(O)c6ccc(O[C@@H]7OC(C)(C)[C@H](OC)[C@@H](OC(=O)c8ccc(C)[nH]8)[C@H]7O)c(C)c6oc5=O)c4C)c(=O)oc3c2C)OC1(C)C [coumermycin-A1, coumermycin A1]
[1]
  inhibition of MCM assembly and activity: inhibits MCM assembly and activity
[2]
  sensitivity of Hacat non-tumor cells to CMG helicase inhibition: far less sensitive
[3]
  inhibition of HPV18 E1 helicase: is inhibited
[4]
  inhibition of the human CMG in biochemical assays (primary and secondary): effective CMGi
[5]
  inhibition of SV40 Tag helicase in fork unwinding assay: capable of being inhibited; also recorded: inhibiting SV40 Tag helicase
[6]
  toxicity: some toxicity
[6]; listed as Coumermycin A1
  RPA loading onto DNA/chromatin (RPA32 in chromatin-bound fraction): inhibits RPA loading onto DNA/chromatin
[6]; listed as coumermycin A1
  RPA loading onto DNA/chromatin (RPA32 in chromatin-bound fraction): inhibiting RPA loading onto DNA/chromatin
[7]
  DNA damage leading to Parp cleavage: causes DNA damage specifically in tumor cells
[8]
  inhibition of HPV16 E1 helicase: is inhibited
[9]
  inhibition of E1 helicase from HPV16: can be directly inhibited
[9]; helicase domain only
  inhibition of HPV16 E1 helicase: is inhibited
[10]
  inhibition of OS tumor cells versus non-tumor cells (Hacat): inhibits OS tumor cells with more specificity than non-tumor cells (Hacat)
[11]; 12 day analysis
  OS tumor growth in mice: suppresses OS tumor growth in mice
[11]; 18 day analysis
  OS tumor growth in mice: suppresses OS tumor growth in mice
[12]
  sensitivity of multiple tumor types to CMG helicase inhibition: sensitive to low doses
[13]
  CMG activity inhibited: 91.7%
  inhibition of CMG helicase in fluorescent-polarization assay: inhibiting CMG helicase
[14]
  inhibition of CMG activity in fork unwinding assay: inhibit CMG activity
  inhibition of human CMG helicase in fork unwinding assay: capable of being inhibited
[15]
  inhibition of HPV31 E1 helicase: is inhibited

## CO[C@@H]1[C@@H](OC(=O)c2ccc(C)[nH]2)[C@@H](O)[C@H](Oc2ccc3c(O)c(NC(=O)c4ccc(O)c(CC=C(C)C)c4)c(=O)oc3c2Cl)OC1(C)C [clorobiocin]
[4]; FIG. 24
  inhibition of human CMG (hCMG), dose dependence: inhibits human CMG (hCMG) in a dose-dependent manner
[4]; direct comparison to novobiocin (500 uM), FIG. 25
  inhibition of human CMG (hCMG): inhibits human CMG (hCMG)
[4]
  inhibition of the human CMG in biochemical assays (primary and secondary): very effectively inhibit the human CMG helicase in vitro; also recorded: effectively inhibit the human CMG
[13]
  CMG activity inhibited: 81.5%
  inhibition of CMG helicase in fluorescent-polarization assay: inhibiting CMG helicase
[14]
  inhibition of CMG activity in fork unwinding assay: inhibit CMG activity

## CO[C@@H]1[C@@H](OC(N)=O)[C@@H](O)[C@H](Oc2ccc3c(O)c(NC(=O)c4ccc(O)c(CC=C(C)C)c4)c(=O)oc3c2C)OC1(C)C [novobiocin]
[4]
  inhibition of the human CMG in biochemical assays (primary and secondary): not to inhibit the human CMG at any level of exposure
[5]
  inhibition of SV40 Tag helicase in fork unwinding assay: not
[6]
  RPA loading onto DNA/chromatin (RPA32 in chromatin-bound fraction): does not inhibit RPA at all
[9]
  inhibition of E1 helicase from HPV16: can be directly inhibited
[10]
  inhibition of OS tumor cells versus non-tumor cells (Hacat): does not inhibit any cells
[13]
  CMG activity inhibited: 12.5%
  inhibition of CMG helicase in fluorescent-polarization assay: does not
[14]
  inhibition of human CMG helicase in fork unwinding assay: not

## O=C(O)c1cn(C2CC2)c2cc(N3CCNCC3)c(F)cc2c1=O [ciprofloxacin]
[16]
  cell growth of HeLa cells: stopped cell growth
